Data from ChEMBL document CHEMBL3593229, “Identification of a potent 5-phenyl-thiazol-2-ylamine-based inhibitor of FLT3 with activity against drug resistance-conferring point mutations” (Eur J Med Chem, 2015).

Tests used:
[1] = molecular target: Receptor-type tyrosine-protein kinase FLT3 (Homo sapiens) (UniProt P36888); experiment: Inhibition of human FLT3 at 0.1 uM relative to control
[2] = molecular target: Tyrosine-protein kinase Lyn (Homo sapiens) (UniProt P07948); experiment: Inhibition of human LYNA at 0.1 uM relative to control
Sequence of Tyrosine-protein kinase Lyn (Homo sapiens) (P07948 2-512 limits assumed): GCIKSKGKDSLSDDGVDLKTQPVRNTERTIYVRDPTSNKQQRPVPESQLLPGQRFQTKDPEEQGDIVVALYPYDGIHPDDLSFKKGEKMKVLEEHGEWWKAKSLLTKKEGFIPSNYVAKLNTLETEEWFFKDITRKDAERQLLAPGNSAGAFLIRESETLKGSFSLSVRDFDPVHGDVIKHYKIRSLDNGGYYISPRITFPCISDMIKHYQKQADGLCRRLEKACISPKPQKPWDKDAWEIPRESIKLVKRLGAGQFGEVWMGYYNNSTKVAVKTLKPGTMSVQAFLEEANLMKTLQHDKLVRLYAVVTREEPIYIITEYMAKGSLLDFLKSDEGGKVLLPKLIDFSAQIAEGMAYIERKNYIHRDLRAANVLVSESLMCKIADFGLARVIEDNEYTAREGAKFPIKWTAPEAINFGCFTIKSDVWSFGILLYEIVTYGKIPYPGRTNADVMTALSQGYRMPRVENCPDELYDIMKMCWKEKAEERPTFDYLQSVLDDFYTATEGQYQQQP

[3] = molecular target: Aurora kinase A (Homo sapiens) (UniProt O14965); experiment: Inhibition of human AURKA at 0.1 uM relative to control
[4] = molecular target: Proto-oncogene tyrosine-protein kinase receptor Ret (Homo sapiens) (UniProt P07949); experiment: Inhibition of human RET at 0.1 uM relative to control
Sequence of Proto-oncogene tyrosine-protein kinase receptor Ret (Homo sapiens) (P07949 whole entry): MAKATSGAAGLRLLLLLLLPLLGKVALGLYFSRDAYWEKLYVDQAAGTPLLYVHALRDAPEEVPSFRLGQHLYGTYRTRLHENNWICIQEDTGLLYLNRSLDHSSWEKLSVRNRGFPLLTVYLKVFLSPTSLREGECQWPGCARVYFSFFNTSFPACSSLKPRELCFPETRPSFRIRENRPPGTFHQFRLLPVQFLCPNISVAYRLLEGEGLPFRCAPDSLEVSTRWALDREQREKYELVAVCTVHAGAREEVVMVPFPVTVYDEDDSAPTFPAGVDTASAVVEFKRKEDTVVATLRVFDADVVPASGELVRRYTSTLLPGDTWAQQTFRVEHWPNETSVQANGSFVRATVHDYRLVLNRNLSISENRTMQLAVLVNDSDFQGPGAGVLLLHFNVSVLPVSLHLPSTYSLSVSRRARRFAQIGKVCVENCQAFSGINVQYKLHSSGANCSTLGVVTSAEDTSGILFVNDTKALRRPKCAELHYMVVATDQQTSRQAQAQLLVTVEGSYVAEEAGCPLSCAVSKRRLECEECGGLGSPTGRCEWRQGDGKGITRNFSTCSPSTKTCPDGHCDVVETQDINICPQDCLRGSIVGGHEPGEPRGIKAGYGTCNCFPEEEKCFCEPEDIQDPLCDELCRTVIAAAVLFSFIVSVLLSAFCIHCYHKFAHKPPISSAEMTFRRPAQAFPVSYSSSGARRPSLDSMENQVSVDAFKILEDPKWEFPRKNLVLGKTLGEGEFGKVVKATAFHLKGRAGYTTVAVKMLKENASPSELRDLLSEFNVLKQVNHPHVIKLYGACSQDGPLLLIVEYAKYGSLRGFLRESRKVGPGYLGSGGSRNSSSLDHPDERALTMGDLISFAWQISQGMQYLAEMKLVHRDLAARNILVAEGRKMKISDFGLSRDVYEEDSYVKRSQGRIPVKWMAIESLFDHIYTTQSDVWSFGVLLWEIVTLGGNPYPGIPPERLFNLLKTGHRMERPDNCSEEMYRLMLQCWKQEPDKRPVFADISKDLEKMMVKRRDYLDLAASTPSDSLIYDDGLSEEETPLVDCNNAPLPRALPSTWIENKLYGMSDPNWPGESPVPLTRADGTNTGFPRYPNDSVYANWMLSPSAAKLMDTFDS

[5] = molecular target: Tyrosine-protein kinase Lck (Homo sapiens) (UniProt P06239); experiment: Inhibition of human LCK at 0.1 uM relative to control
[6] = test system: Proto-oncogene tyrosine-protein kinase receptor Ret (Homo sapiens), P07949 [V804L]; experiment: Inhibition of human RET V804L mutant at 0.1 uM relative to control
Sequence of Proto-oncogene tyrosine-protein kinase receptor Ret (Homo sapiens), P07949 [V804L] (P07949 whole entry V804L): as the sequence (P07949 whole entry) above, with V804L counted along it

[7] = molecular target: Tyrosine-protein kinase Fgr (Homo sapiens) (UniProt P09769); experiment: Inhibition of human FGR at 0.1 uM relative to control
Sequence of Tyrosine-protein kinase Fgr (Homo sapiens) (P09769 2-529 limits assumed): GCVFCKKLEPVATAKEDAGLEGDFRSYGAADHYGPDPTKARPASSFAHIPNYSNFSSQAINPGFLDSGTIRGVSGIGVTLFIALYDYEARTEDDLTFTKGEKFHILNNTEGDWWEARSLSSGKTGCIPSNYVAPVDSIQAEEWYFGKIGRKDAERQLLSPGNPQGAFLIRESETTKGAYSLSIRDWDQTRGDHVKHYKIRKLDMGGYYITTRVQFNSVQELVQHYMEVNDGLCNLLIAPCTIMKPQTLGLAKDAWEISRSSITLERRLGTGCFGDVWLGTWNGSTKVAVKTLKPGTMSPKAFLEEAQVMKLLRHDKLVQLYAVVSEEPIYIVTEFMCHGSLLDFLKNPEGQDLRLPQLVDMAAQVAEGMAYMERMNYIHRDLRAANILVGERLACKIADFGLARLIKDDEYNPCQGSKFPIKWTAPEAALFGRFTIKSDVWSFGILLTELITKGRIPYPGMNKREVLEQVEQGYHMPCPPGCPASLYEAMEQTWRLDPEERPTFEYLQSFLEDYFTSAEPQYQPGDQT

[8] = molecular target: Tyrosine-protein kinase ABL1 (Homo sapiens) (UniProt P00519); experiment: Inhibition of human ABL1 at 0.1 uM relative to control
[9] = molecular target: Aurora kinase C (Homo sapiens) (UniProt Q9UQB9); experiment: Inhibition of human AURKC at 0.1 uM relative to control
Sequence of Aurora kinase C (Homo sapiens) (Q9UQB9 whole entry): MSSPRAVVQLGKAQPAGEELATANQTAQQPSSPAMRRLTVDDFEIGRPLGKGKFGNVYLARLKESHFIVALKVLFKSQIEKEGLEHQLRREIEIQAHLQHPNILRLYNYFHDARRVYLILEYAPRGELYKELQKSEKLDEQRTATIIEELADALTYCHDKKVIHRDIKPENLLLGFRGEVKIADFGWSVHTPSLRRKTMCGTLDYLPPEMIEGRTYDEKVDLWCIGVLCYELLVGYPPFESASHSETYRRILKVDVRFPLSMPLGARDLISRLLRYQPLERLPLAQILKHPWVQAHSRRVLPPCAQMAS

[10] = molecular target: Glycogen synthase kinase-3 beta (Homo sapiens) (UniProt P49841); experiment: Inhibition of human GSK3B at 0.1 uM relative to control
Sequence of Glycogen synthase kinase-3 beta (Homo sapiens) (P49841 whole entry, looked up): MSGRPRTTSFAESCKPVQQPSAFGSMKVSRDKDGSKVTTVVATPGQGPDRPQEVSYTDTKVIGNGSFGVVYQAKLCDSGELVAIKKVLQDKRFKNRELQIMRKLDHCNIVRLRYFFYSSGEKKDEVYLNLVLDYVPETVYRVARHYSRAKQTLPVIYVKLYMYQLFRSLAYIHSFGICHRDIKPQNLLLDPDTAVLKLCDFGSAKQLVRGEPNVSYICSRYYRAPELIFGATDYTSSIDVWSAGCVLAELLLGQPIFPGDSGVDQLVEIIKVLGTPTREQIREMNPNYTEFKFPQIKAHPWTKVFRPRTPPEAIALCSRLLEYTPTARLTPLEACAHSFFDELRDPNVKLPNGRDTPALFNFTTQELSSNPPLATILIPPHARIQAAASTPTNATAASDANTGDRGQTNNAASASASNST

[11] = molecular target: Mitogen-activated protein kinase 8 (Homo sapiens) (UniProt P45983); experiment: Inhibition of human MAPK8 at 0.1 uM relative to control
Sequence of Mitogen-activated protein kinase 8 (Homo sapiens) (P45983 whole entry): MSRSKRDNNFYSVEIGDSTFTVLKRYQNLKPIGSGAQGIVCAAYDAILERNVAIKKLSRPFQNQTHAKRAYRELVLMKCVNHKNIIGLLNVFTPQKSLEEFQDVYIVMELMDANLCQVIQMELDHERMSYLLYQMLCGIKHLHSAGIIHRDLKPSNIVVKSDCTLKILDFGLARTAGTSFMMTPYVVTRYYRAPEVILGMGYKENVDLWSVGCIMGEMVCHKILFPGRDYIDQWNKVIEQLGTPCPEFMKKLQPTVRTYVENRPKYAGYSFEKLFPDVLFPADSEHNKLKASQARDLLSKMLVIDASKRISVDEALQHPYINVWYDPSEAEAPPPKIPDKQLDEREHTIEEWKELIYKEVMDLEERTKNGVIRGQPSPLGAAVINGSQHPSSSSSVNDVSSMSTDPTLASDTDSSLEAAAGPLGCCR

[12] = molecular target: Hepatocyte growth factor receptor (Homo sapiens) (UniProt P08581); experiment: Inhibition of human MET at 0.1 uM relative to control
[13] = molecular target: Serine/threonine-protein kinase PLK1 (Homo sapiens) (UniProt P53350); experiment: Inhibition of human PLK1 at 0.1 uM relative to control
Sequence of Serine/threonine-protein kinase PLK1 (Homo sapiens) (P53350 whole entry): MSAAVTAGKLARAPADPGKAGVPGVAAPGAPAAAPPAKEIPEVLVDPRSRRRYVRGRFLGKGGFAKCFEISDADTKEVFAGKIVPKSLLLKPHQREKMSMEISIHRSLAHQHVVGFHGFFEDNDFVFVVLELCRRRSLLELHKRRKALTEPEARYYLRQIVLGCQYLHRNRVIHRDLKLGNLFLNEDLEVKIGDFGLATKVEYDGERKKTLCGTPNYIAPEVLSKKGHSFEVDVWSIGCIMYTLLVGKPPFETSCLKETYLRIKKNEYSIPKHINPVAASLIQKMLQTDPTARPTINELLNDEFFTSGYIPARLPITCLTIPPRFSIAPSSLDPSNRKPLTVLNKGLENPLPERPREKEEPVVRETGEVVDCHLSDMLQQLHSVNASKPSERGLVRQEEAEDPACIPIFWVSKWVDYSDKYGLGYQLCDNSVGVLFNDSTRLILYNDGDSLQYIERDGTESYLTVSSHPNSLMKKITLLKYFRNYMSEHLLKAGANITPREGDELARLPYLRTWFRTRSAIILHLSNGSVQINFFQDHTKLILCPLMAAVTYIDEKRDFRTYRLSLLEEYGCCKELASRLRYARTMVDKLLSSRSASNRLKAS

[14] = molecular target: Glycogen synthase kinase-3 alpha (Homo sapiens) (UniProt P49840); experiment: Inhibition of human GSK3A at 0.1 uM relative to control
Sequence of Glycogen synthase kinase-3 alpha (Homo sapiens) (P49840 2-483 limits assumed): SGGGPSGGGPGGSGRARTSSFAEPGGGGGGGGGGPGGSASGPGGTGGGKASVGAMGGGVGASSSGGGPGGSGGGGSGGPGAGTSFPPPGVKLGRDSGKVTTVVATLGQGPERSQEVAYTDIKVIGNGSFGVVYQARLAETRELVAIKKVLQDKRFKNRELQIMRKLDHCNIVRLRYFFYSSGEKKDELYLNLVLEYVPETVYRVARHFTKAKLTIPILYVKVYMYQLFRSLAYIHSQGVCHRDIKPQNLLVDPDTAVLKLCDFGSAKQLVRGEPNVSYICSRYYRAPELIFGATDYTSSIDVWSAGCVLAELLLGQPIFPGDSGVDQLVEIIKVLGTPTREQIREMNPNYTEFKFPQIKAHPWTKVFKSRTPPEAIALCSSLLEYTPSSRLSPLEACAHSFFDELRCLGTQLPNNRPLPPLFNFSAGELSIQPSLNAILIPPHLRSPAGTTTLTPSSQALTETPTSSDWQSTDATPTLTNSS

[15] = molecular target: RAC-alpha serine/threonine-protein kinase (Homo sapiens) (UniProt P31749); experiment: Inhibition of human AKT1 at 0.1 uM relative to control
Sequence of RAC-alpha serine/threonine-protein kinase (Homo sapiens) (P31749 whole entry): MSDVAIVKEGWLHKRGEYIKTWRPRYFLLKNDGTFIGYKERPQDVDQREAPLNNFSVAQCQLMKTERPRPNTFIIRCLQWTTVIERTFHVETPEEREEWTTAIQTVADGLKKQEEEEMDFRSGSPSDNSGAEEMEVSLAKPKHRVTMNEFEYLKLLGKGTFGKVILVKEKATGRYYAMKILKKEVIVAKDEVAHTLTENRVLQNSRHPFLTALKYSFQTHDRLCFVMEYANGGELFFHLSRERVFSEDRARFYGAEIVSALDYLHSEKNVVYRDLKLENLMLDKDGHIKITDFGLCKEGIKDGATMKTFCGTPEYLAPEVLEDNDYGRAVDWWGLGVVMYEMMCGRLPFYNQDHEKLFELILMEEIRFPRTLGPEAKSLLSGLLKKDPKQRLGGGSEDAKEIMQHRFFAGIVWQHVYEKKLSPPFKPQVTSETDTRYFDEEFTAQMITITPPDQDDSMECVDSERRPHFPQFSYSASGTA

[16] = molecular target: Tyrosine-protein kinase JAK1 (Homo sapiens) (UniProt P23458); experiment: Inhibition of human JAK1 at 0.1 uM relative to control
[17] = molecular target: T1, Receptor-type tyrosine-protein kinase FLT3 (Homo sapiens, UniProt P36888); experiment: Inhibition of wild type FLT3 (unknown origin) phosphorylation expressed in HEK293T cells preincubated for 1 hr followed by FLT3 ligand addition for 5 mins by Western blot analysis; format: cell-based, HEK-293T
T1 sequence (P36888 whole entry): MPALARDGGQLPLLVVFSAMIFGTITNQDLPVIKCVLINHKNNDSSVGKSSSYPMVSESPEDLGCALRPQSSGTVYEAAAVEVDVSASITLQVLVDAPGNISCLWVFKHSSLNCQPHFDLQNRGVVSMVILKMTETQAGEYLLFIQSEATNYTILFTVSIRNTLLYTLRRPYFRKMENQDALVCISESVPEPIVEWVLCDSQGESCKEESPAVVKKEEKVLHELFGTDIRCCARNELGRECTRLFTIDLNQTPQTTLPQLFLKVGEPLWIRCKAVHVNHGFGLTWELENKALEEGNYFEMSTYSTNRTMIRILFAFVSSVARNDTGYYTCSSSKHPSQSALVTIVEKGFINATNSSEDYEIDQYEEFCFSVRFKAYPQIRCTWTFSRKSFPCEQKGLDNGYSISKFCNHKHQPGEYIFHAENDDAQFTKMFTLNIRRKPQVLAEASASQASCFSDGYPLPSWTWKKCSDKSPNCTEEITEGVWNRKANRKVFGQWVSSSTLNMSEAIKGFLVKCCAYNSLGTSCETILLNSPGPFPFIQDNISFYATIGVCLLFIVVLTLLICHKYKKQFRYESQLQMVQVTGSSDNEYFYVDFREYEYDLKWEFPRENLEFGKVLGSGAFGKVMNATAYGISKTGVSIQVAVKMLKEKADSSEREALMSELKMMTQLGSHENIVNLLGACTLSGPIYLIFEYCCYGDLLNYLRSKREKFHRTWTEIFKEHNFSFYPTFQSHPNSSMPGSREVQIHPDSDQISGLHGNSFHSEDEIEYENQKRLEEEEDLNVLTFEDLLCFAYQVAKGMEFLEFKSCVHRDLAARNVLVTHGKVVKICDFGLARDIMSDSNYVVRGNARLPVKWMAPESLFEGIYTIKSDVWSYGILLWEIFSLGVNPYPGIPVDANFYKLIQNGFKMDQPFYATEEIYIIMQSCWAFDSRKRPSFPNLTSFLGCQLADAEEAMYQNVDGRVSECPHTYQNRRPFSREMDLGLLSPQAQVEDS

[18] = molecular target: Receptor-type tyrosine-protein kinase FLT3 (Homo sapiens, UniProt P36888, ITD); experiment: Inhibition of FLT3 ITD mutant (unknown origin) phosphorylation expressed in HEK293T cells preincubated for 1 hr followed by FLT3 ligand addition for 5 mins by Western blot analysis; format: cell-based, HEK-293T
[19] = molecular target: Receptor-type tyrosine-protein kinase FLT3 (Homo sapiens, UniProt P36888, D835Y); experiment: Inhibition of FLT3 ITD D835Y mutant (unknown origin) phosphorylation expressed in HEK293T cells preincubated for 1 hr followed by FLT3 ligand addition for 5 mins by Western blot analysis; format: cell-based, HEK-293T
[20] = Half life in Sprague-Dawley rat at 10 mg/kg, po; format: ADME, organism-based; settings: in vivo
[21] = Half life in ICR mouse at 10 mg/kg, po; format: ADME, organism-based; settings: in vivo
[22] = Cmax in Sprague-Dawley rat at 10 mg/kg, po; format: ADME, organism-based; set-up: dose 10 mg/kg, route oral; settings: in vivo
[23] = Oral bioavailability in ICR mouse at 10 mg/kg; format: ADME, organism-based; settings: in vivo
Mus musculus = experiment: Antitumor activity against human MOLM13 cells xenografted in SCID mouse assessed as increase in survival at 25 mg/kg, po qd administered on day 8 to 12 relative to vehicle-treated control; format: functional, MOLM-13
[24] = test system: Receptor-type tyrosine-protein kinase FLT3 (Homo sapiens), P36888 [UNDEFINED MUTATION]; settings: MV4-11
Description: Inhibition of FLT3 ITD homozygous mutant in human MV4-11 cells assessed as cell growth inhibition after 72 hrs by MTS assay

[25] = molecular target: Receptor-type tyrosine-protein kinase FLT3 (Homo sapiens) (UniProt P36888); settings: RS4:11 cell
Description: Inhibition of wild type homozygous FLT3 in human RS4:11 cells assessed as cell growth inhibition after 72 hrs by MTS assay

[26] = molecular target: Bcr/Abl fusion protein (Homo sapiens) (UniProt P00519+P11274); settings: K562
Description: Inhibition of wild type BCR/ABL in FLT3 deficient human K562 cells assessed as cell growth inhibition after 72 hrs by MTS assay

[27] = molecular target: Vascular endothelial growth factor receptor 2 (Homo sapiens, UniProt P35968); settings: 0.1 uM
Description: Inhibition of human KDR at 0.1 uM relative to control

[28] = test system: Receptor-type tyrosine-protein kinase FLT3 (Homo sapiens), P36888 [D835Y]

SMILES: CCc1cc(NC(=O)Nc2ccc(-c3cnc(Nc4cc(N5CCN(CC)CC5)nc(C)n4)s3)cc2)no1
- inhibition [1]: 98%
- inhibition [2]: 96%
- inhibition [3]: 96%
- inhibition [4]: 95%
- inhibition [5]: 92%
- inhibition [6]: 65%
- inhibition [7]: 89%
- inhibition [8]: 66%
- inhibition [9]: 45%
- inhibition [10]: 44%
- inhibition [11]: 15%
- inhibition [12]: 14%
- inhibition [13]: 9%
- inhibition [14]: 2%
- inhibition [15]: 0%
- inhibition [16]: -8%
- IC50 [17]: 10 nM
- IC50 [18]: 10 nM
- IC50 [19]: 10 nM
- half-life [20]: 4.3 h
- half-life [21]: 1.8 h
- Cmax [22]: 122 ng/mL
- bioavailability [23]: 35%
- Activity (Mus musculus): 90%
- GI50 [24]: 1 nM
- GI50 [25]: 110 nM
- GI50 [26]: 190 nM
- inhibition [27]: 85%
- GI50 [28]: 6 nM
